The results in this text go back to paper doi:10.1101/2025.05.21.655333v1, “Role of glutamate 292 and lysine 331 in catalysis for the flavoenzyme (S)-6-hydroxynicotine oxidase from Shinella sp. HZN7” (biorxiv, 2025).

The experiment addresses T1, NctB (Shinella sp. HZN7, UniProt A0A075BSX9).
T1 construct: synthetic gene in pET29b (NdeI/XhoI), C-terminal His tag, expressed in E. coli BL21(DE3); FAD-containing flavoenzyme
The experiment in a line: absorbance spectra before and after SDS/heat release of FAD. The class given is binding. The note with it: pH 7.5; prosthetic group co-purified with the enzyme.

T1 sequence (A0A075BSX9 whole entry): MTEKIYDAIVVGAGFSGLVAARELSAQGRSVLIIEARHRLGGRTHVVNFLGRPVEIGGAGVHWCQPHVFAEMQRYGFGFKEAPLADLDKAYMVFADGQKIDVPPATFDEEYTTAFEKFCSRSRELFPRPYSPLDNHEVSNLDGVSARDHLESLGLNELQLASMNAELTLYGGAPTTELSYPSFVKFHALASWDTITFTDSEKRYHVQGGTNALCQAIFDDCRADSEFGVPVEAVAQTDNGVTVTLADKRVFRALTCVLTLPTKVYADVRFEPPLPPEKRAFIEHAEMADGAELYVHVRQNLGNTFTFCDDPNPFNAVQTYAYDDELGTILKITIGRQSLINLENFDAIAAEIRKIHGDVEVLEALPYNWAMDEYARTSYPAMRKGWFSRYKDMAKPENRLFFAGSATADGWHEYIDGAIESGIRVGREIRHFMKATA

For the molecule `Cc1cc2nc3c(=O)[nH]c(=O)nc-3n(C[C@H](O)[C@H](O)[C@H](O)COP(=O)(O)OP(=O)(O)OC[C@H]3O[C@@H](n4cnc5c(N)ncnc54)[C@H](O)[C@@H]3O)c2cc1C` [flavin adenine dinucleotide], the “absorbance spectra before and after SDS/heat release of FAD” value is “The extinction coefficient of FAD bound to NctB was then calculated”.
